Experimental findings from patent US10729817B2, “Medical device and plasticized nylon” (Medtronic Vascular, Inc., priority 2013, dated 2020) are described below.

SMILES strings stand for the structures.

Series [1] in a line: Tensile test of pressed films, ASTM D638, INSTRON. The following applies: for Elongation / Tensile Modulus / Tensile Strength / Tensile elastic modulus: 10 wt-% plasticizer in RILSAN Nylon-12 film; for Elongation / Tensile Modulus / Tensile Strength: Nylon-12 unplasticized. The format is physicochemical. How it is done:
(§1) Samples of 5, 10, and 15 wt-% of plasticizer from Example 1 were compounded with Nylon-12 in a Brabender mixer at 210° C. Sheets (30-mils thick) were pressed at 200° C. Tensile specimens were punched and tested on an INSTRON testing machine at a cross-head speed of 2 inches/minute according to ASTM D638 test Method. The flexural properties were tested according to ASTM D790-97B test method. The average tensile and flexural moduli of plasticized Nylon-12 are shown in FIG. 3 and FIG. 4, respectively.
(§2) A sample of 10 wt-% of plasticizer from each of Examples 15-17 was compounded with RILSAN Nylon-12 as described in Example 2. The melting point (mp) and crystallinity was determined by DSC.
(§3) A sample of 10 wt-% of plasticizer from each of Examples 4-5 and 19-20 was compounded with RILSAN Nylon-12 as described in Example 2. The melting point (mp) and crystallinity was determined by DSC.
A sample of 5-10 wt-% in RILSAN Nylon-12 was compounded with 5-10 wt-% plasticizer from Example 8 under similar conditions as in Example 9. Sheets (30-mils thick) were pressed at 200° C. from pellets. Tensile specimens were punched and tested on an INSTRON testing machine at a cross-head speed of 2 inches/minute according to ASTM D638 test Method.

The nature of series [2]: Thermal properties of plasticized Nylon-12 by DSC. The format is physicochemical. The following applies: for Crystallinity / mp: 10 wt-% plasticizer in RILSAN Nylon-12, Nylon-12 unplasticized. How it is done: as §1, §2, §3
(In general: DSC measures the heat that a sample takes up or gives off during a temperature scan.)

Series [3] can be described thus: Flexural properties of pressed films, ASTM D790-97B. The format is physicochemical. Conditions: for Flexural elastic modulus: 10 wt-% plasticizer in RILSAN Nylon-12 film. How it is done: as §1
Series [4] can be described thus: Thermal properties of plasticized Nylon-12 by DSC. The format is physicochemical.
[5] abbreviates: 10 wt-% plasticizer in GRILAMID L25 Nylon-12.
Where [6] appears, read: 5-10 wt-% plasticizer in RILSAN Nylon-12.
Where [7] appears, read: 5, 10, 15 wt-% plasticizer in Nylon-12.

`CCCCCCCC(=O)NCCN(CCN(CCNC(=O)CCCCCCC)C(=O)CCCCCCC)C(=O)CCCCCCC` [Example 18, Triethylenetetramine Octanoic Acid Tetramide]: in series [1] (Table 2), the Elongation is 238%, the “Tensile Modulus” value is listed as 95902 psi and the “Tensile Strength” value is on record as 9079 psi. In series [2] (Table 2), the Crystallinity was 26.7 % by DSC and the mp is 176.2 °C.

For the compound `CCCCCCCCC(=O)NCCN(CCNC(=O)CCCCCCCC)C(=O)CCCCCCCC` [Example 5, N,N′,N″-trinonanoyl diethylenetriamine], in series [1] (Table 3), the Elongation is reported as 226%, the “Tensile Modulus” value was 74935 psi and the “Tensile Strength” value is 7411 psi. In series [2] (Table 3), this compound showed a Crystallinity of 29.2 % by DSC and a mp of 176.0 °C.

On to `CCCCCCC(=O)NCCCN(CCNC(=O)CCCCCC)C(=O)CCCCCC` [Example 16, N-(2-aminoethyl)-1,3-propanediamine heptanoic acid triamide], for which, in series [1] (Table 2), the Elongation stood at 258%, the “Tensile Modulus” value is given as 83455 psi and the “Tensile Strength” value came to 8637 psi. Also, in series [2] (Table 2), the Crystallinity came to 24.6 % by DSC and the mp was found to be 175.6 °C.

As to `CCCCCCCCCC(=O)NCCN(CCNC(=O)CCCCCCCCC)C(=O)CCCCCCCCC` [Example 20, N,N′,N″-tridecanoyl diethylenetriamine], in series [1] (Table 3), the Elongation was 251%, the “Tensile Modulus” value is 83517 psi and the “Tensile Strength” value was 8034 psi. In series [2] (Table 3), the Crystallinity was 31.0 % by DSC and the mp is 175.9 °C.

As for `CCCCCCC(=O)NCCN(CCNC(=O)CCCCCC)C(=O)CCCCCC` [Example 4, N,N′,N″-triheptanoyl diethylenetriamine], in series [1] (Table 3), the Elongation was determined as 231%, the “Tensile Modulus” value amounted to 66588 psi and the “Tensile Strength” value worked out at 7422 psi. In series [2] (Table 3), this compound registered a Crystallinity of 29.8 % by DSC and a mp of 175.2 °C.

Consider `CCCCCCCC(=O)NCCCN(CCNC(=O)CCCCCCC)C(=O)CCCCCCC` [Example 17, N-(2-aminoethyl)-1,3-propanediamine octanoic acid triamide], for which, in series [1] (Table 2), the Elongation is 263%, the “Tensile Modulus” value is 81308 psi and the “Tensile Strength” value is given as 8871 psi. In series [2] (Table 2), this compound had a Crystallinity of 25.2 % by DSC and a mp of 175.5 °C.

Take `CCCCCCCC(=O)NCCN(CCNC(=O)CCCCCCC)C(=O)CCCCCCC` [Example 13, N,N′,N″-trioctanoyl diethylenetriamine]: the melting point was 97.9 °C. The Flexural elastic modulus in series [3] is listed as 71839 psi. Further, the Tensile elastic modulus in series [1] worked out at 85644 psi.

As for `CCCCCCCC(=O)NCCN(CCNC(=O)CCCCCCC)C(=O)CCCCCCC` [Example 8, N,N′,N″-trioctanoyl diethylenetriamine], in series [3] (setting [5]), the “Flexural modulus after adding plasticizer” value was “decreased significantly”. Moreover, in series [3] (listed as unpurified material), the Flexural elastic modulus was 72345 psi. Further, in series [1] (setting [6]), the “Tensile modulus versus plasticizer content” value is “decreased with increasing plastic content” and the “Tensile strength versus plasticizer content” value is given as “did not change”. Further, in series [1] (setting [5]), the “Tensile strength of base resin GRILAMID L25 after adding plasticizer” value was “maintained”. The same compound came in with a Tensile elastic modulus in series [1] (listed as unpurified material) of 82997 psi.

With `CCCCCCCC(=O)NCCN(CCNC(=O)CCCCCCC)C(=O)CCCCCCC` [Example 1, N,N′,N″-trioctanoyl diethylenetriamine], the “Flexural modulus of Nylon-12 after adding the plasticizer” value in series [3] (setting [7]) is “decreased”. The “Tensile modulus of Nylon-12 after adding the plasticizer” value in series [1] (setting [7]) is given as “decreased”. Also, the ΔHm in series [4] (5% plasticizer in Nylon-12) was 60.2 J/g; in series [4] (15% plasticizer in Nylon-12), 54.7 J/g; in series [2] (10% plasticizer in Nylon-12), 58.2 J/g. Also, the “% Crystallinity” value in series [4] (10% plasticizer in Nylon-12) is listed as 27.8%; in series [2] (5% plasticizer in Nylon-12), 28.8%; in series [2] (15% plasticizer in Nylon-12), 26.2%. Further, the “Tm Melt peak” value in series [4] (10% plasticizer in Nylon-12) was found to be 175.9 °C; in series [4] (15% plasticizer in Nylon-12) it was 173.9 °C; in series [2] (5% plasticizer in Nylon-12) it was 176.6 °C.

Broadly, the melting point is the temperature of the solid-liquid transition.
